Experimental data as given in PubChem BioAssay (NCI).
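Interpolation was linear, between the two tested concentrations surrounding the appropriate level; five concentrations were tested over 48 hours in 96-well plates. Abbreviation: GI50, concentration required for 50% inhibition of growth. TGI: total growth inhibition.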

Tests used:
Test in all cases: NCI anticancer screen, dose series, 48 h
786-0 renal = system: 786-0 renal
A498 renal = system: A498 renal
A549 NSCLC = system: A549 NSCLC
ACHN renal = system: ACHN renal
BT-549 breast = system: BT-549 breast
CAKI-1 renal = system: CAKI-1 renal
CCRF-CEM leukemia = system: CCRF-CEM leukemia
COLO 205 colon = system: COLO 205 colon
DU-145 prostate = system: DU-145 prostate
EKVX NSCLC = system: EKVX NSCLC
HCC-2998 colon = system: HCC-2998 colon
HCT-116 colon = system: HCT-116 colon
HCT-15 colon = system: HCT-15 colon
HL-60(TB) leukemia = system: HL-60(TB) leukemia
HOP-62 NSCLC = system: HOP-62 NSCLC
HOP-92 NSCLC = system: HOP-92 NSCLC
HS 578T breast = system: HS 578T breast
HT29 colon = system: HT29 colon
IGROV1 ovarian = system: IGROV1 ovarian
K-562 leukemia = system: K-562 leukemia
KM12 colon = system: KM12 colon
LOX IMVI melanoma = system: LOX IMVI melanoma
M14 melanoma = system: M14 melanoma
MALME-3M melanoma = system: MALME-3M melanoma
MCF7 breast = system: MCF7 breast
MDA-MB-231 breast = system: MDA-MB-231 breast
MDA-MB-435 = system: MDA-MB-435
MOLT-4 leukemia = system: MOLT-4 leukemia
NCI-H226 lung = system: NCI-H226 lung
NCI-H23 lung = system: NCI-H23 lung
NCI-H460 lung = system: NCI-H460 lung
NCI-H522 lung = system: NCI-H522 lung
NCI/ADR-RES ovarian = system: NCI/ADR-RES ovarian
OVCAR-3 ovarian = system: OVCAR-3 ovarian
OVCAR-4 ovarian = system: OVCAR-4 ovarian
OVCAR-5 ovarian = system: OVCAR-5 ovarian
OVCAR-8 ovarian = system: OVCAR-8 ovarian
PC-3 prostate = system: PC-3 prostate
RPMI-8226 leukemia = system: RPMI-8226 leukemia
RXF 393 renal = system: RXF 393 renal
SF-268 CNS = system: SF-268 CNS
SF-295 CNS = system: SF-295 CNS
SF-539 CNS = system: SF-539 CNS
SK-MEL-2 melanoma = system: SK-MEL-2 melanoma
SK-MEL-28 melanoma = system: SK-MEL-28 melanoma
SK-MEL-5 melanoma = system: SK-MEL-5 melanoma
SK-OV-3 ovarian = system: SK-OV-3 ovarian
SN12C renal = system: SN12C renal
SNB-19 CNS = system: SNB-19 CNS
SNB-75 CNS = system: SNB-75 CNS
SR leukemia = system: SR leukemia
SW-620 colon = system: SW-620 colon
T-47D breast = system: T-47D breast
TK-10 renal = system: TK-10 renal
U251 CNS = system: U251 CNS
UACC-257 melanoma = system: UACC-257 melanoma
UACC-62 melanoma = system: UACC-62 melanoma
UO-31 renal = system: UO-31 renal

`C=C1C(=O)OC(CCCCCCCC)C1C(=O)O` (centres undefined) showed a GI50 (786-0 renal) of 18.2 µM, a TGI (786-0 renal) of 36.7 µM and a GI50 (A498 renal) of 17.4 µM. For the same compound, the TGI (A498 renal) was 33.3 µM, the GI50 (A549 NSCLC) was 23.6 µM and the TGI (A549 NSCLC) was greater than 67.6 µM. For the same compound, the GI50 (ACHN renal) was 17.2 µM, the TGI (ACHN renal) was 31 µM and the GI50 (BT-549 breast) was 12.6 µM. It also gave a TGI (BT-549 breast) of 26.6 µM, a GI50 (CAKI-1 renal) of 16 µM and a TGI (CAKI-1 renal) of 34.9 µM. It also gave a GI50 (CCRF-CEM leukemia) of 5.49 µM, a TGI (CCRF-CEM leukemia) of 38.7 µM and a GI50 (COLO 205 colon) of 18.2 µM. The TGI (COLO 205 colon) was 33.7 µM, the GI50 (DU-145 prostate) was 15.2 µM and the TGI (DU-145 prostate) was 30.1 µM. It also gave a GI50 (EKVX NSCLC) of 16.1 µM, a TGI (EKVX NSCLC) of 31.2 µM and a GI50 (HCC-2998 colon) of 17.5 µM. It also gave a TGI (HCC-2998 colon) of 31.4 µM, a GI50 (HCT-116 colon) of 11.9 µM and a TGI (HCT-116 colon) of 26.2 µM. The GI50 (HCT-15 colon) was 15.9 µM, the TGI (HCT-15 colon) was 30.8 µM and the GI50 (HL-60(TB) leukemia) was 16.6 µM. It also gave a TGI (HL-60(TB) leukemia) of 46.4 µM, a GI50 (HOP-62 NSCLC) of 20.5 µM and a TGI (HOP-62 NSCLC) of 39.1 µM. For the same compound, the GI50 (HOP-92 NSCLC) was 12.1 µM, the TGI (HOP-92 NSCLC) was 25.4 µM and the GI50 (HS 578T breast) was 17.3 µM. It also gave a TGI (HS 578T breast) greater than 86.6 µM, a GI50 (HT29 colon) of 22.1 µM and a TGI (HT29 colon) of 47.2 µM. For the same compound, the GI50 (IGROV1 ovarian) was 21.8 µM, the TGI (IGROV1 ovarian) was 48.3 µM and the GI50 (K-562 leukemia) was 27.9 µM. The TGI (K-562 leukemia) was greater than 75.8 µM, the GI50 (KM12 colon) was 18.3 µM and the TGI (KM12 colon) was 34.4 µM. The GI50 (LOX IMVI melanoma) was 13.5 µM, the TGI (LOX IMVI melanoma) was 26.9 µM and the GI50 (M14 melanoma) was 14.6 µM. The TGI (M14 melanoma) was 29.7 µM, the GI50 (MALME-3M melanoma) was 11.9 µM and the TGI (MALME-3M melanoma) was 27.3 µM. The GI50 (MCF7 breast) was 12.6 µM, the TGI (MCF7 breast) was 26.5 µM and the GI50 (MDA-MB-231 breast) was 17.7 µM. For the same compound, the TGI (MDA-MB-231 breast) was 33.2 µM, the GI50 (MDA-MB-435) was 17.6 µM and the TGI (MDA-MB-435) was 40.4 µM. For the same compound, the GI50 (MOLT-4 leukemia) was 22.2 µM, the TGI (MOLT-4 leukemia) was 54 µM and the GI50 (NCI-H226 lung) was 19.8 µM. The TGI (NCI-H226 lung) was 48.1 µM, the GI50 (NCI-H23 lung) was 14.2 µM and the TGI (NCI-H23 lung) was 29.2 µM. It also gave a GI50 (NCI-H460 lung) of 18.6 µM, a TGI (NCI-H460 lung) of 37.5 µM and a GI50 (NCI-H522 lung) of 7.57 µM. It also gave a TGI (NCI-H522 lung) of 20.1 µM, a GI50 (NCI/ADR-RES ovarian) of 21.6 µM and a TGI (NCI/ADR-RES ovarian) of 59.7 µM. For the same compound, the GI50 (OVCAR-3 ovarian) was 7.66 µM, the TGI (OVCAR-3 ovarian) was 19.5 µM and the GI50 (OVCAR-4 ovarian) was 15.3 µM. It also gave a TGI (OVCAR-4 ovarian) of 31.8 µM, a GI50 (OVCAR-5 ovarian) of 17 µM and a TGI (OVCAR-5 ovarian) of 31.8 µM. The GI50 (OVCAR-8 ovarian) was 19.4 µM, the TGI (OVCAR-8 ovarian) was 45.9 µM and the GI50 (PC-3 prostate) was 20.2 µM. The TGI (PC-3 prostate) was 40 µM, the GI50 (RPMI-8226 leukemia) was 15 µM and the TGI (RPMI-8226 leukemia) was 59.7 µM. The GI50 (RXF 393 renal) was 10.7 µM, the TGI (RXF 393 renal) was 23.2 µM and the GI50 (SF-268 CNS) was 19.5 µM. The TGI (SF-268 CNS) was 39.6 µM, the GI50 (SF-295 CNS) was 17.6 µM and the TGI (SF-295 CNS) was 37.6 µM. For the same compound, the GI50 (SF-539 CNS) was 17 µM, the TGI (SF-539 CNS) was 31.6 µM and the GI50 (SK-MEL-2 melanoma) was 16.1 µM. For the same compound, the TGI (SK-MEL-2 melanoma) was 31.7 µM, the GI50 (SK-MEL-28 melanoma) was 15 µM and the TGI (SK-MEL-28 melanoma) was 29.1 µM. For the same compound, the GI50 (SK-MEL-5 melanoma) was 16.1 µM, the TGI (SK-MEL-5 melanoma) was 29.9 µM and the GI50 (SK-OV-3 ovarian) was 34.3 µM. The TGI (SK-OV-3 ovarian) was greater than 77.9 µM, the GI50 (SN12C renal) was 14.3 µM and the TGI (SN12C renal) was 28.5 µM. It also gave a GI50 (SNB-19 CNS) of 17 µM, a TGI (SNB-19 CNS) of 32.1 µM and a GI50 (SNB-75 CNS) of 16 µM. It also gave a TGI (SNB-75 CNS) of 34.6 µM, a GI50 (SR leukemia) of 5.57 µM and a TGI (SR leukemia) of 44.9 µM. It also gave a GI50 (SW-620 colon) of 15.2 µM, a TGI (SW-620 colon) of 30.7 µM and a GI50 (T-47D breast) of 12.3 µM. The TGI (T-47D breast) was 30.6 µM, the GI50 (TK-10 renal) was 18.9 µM and the TGI (TK-10 renal) was 33.6 µM. For the same compound, the GI50 (U251 CNS) was 15.6 µM, the TGI (U251 CNS) was 29.4 µM and the GI50 (UACC-257 melanoma) was 11.6 µM. For the same compound, the TGI (UACC-257 melanoma) was 25 µM, the GI50 (UACC-62 melanoma) was 12.1 µM and the TGI (UACC-62 melanoma) was 24.7 µM. The GI50 (UO-31 renal) was 11.7 µM and the TGI (UO-31 renal) was 25.6 µM.
For `COc1cc(/C=C2\C[C@H]3[C@@H]4CC=C5C[C@@H](N6CCCC6)CC[C@]5(C)[C@H]4CC[C@]3(C)[C@H]2O)cc(OC)c1OC`, the TGI (786-0 renal) was 10.8 µM, the TGI (A498 renal) was 30.2 µM and the TGI (A549 NSCLC) was 33.1 µM. It also gave a TGI (ACHN renal) of 29.3 µM, a TGI (BT-549 breast) of 30.1 µM and a TGI (CAKI-1 renal) of 29.8 µM. It also gave a TGI (CCRF-CEM leukemia) greater than 100 µM, a TGI (COLO 205 colon) of 36.5 µM and a TGI (DU-145 prostate) of 32.1 µM. It also gave a TGI (EKVX NSCLC) of 30.2 µM, a TGI (HCC-2998 colon) of 20.7 µM and a TGI (HCT-116 colon) of 27.6 µM. It also gave a TGI (HCT-15 colon) of 26.5 µM, a TGI (HL-60(TB) leukemia) of 21.9 µM and a TGI (HOP-62 NSCLC) of 30.6 µM. It also gave a TGI (HOP-92 NSCLC) of 25 µM, a TGI (HS 578T breast) of 25.2 µM and a TGI (HT29 colon) of 14.5 µM. The TGI (IGROV1 ovarian) was 30 µM, the TGI (K-562 leukemia) was greater than 100 µM and the TGI (KM12 colon) was 23 µM. The TGI (LOX IMVI melanoma) was 20.8 µM, the TGI (M14 melanoma) was 4.74 µM and the TGI (MALME-3M melanoma) was 23.9 µM. For the same compound, the TGI (MCF7 breast) was 22 µM, the TGI (MDA-MB-231 breast) was 33.6 µM and the TGI (MDA-MB-435) was 18.5 µM. The TGI (MOLT-4 leukemia) was greater than 56.2 µM, the TGI (NCI-H226 lung) was 39.7 µM and the TGI (NCI-H23 lung) was 29.9 µM. The TGI (NCI-H460 lung) was 13.6 µM, the TGI (NCI-H522 lung) was 26.7 µM and the TGI (NCI/ADR-RES ovarian) was 40.8 µM. For the same compound, the TGI (OVCAR-3 ovarian) was 31.2 µM, the TGI (OVCAR-4 ovarian) was 51.1 µM and the TGI (OVCAR-5 ovarian) was 24.4 µM. For the same compound, the TGI (OVCAR-8 ovarian) was 23.4 µM, the TGI (PC-3 prostate) was 28.8 µM and the TGI (RPMI-8226 leukemia) was 27 µM. The TGI (RXF 393 renal) was 20.2 µM, the TGI (SF-268 CNS) was 16.5 µM and the TGI (SF-295 CNS) was 26.6 µM. It also gave a TGI (SF-539 CNS) of 32.2 µM, a TGI (SK-MEL-2 melanoma) of 35.9 µM and a TGI (SK-MEL-28 melanoma) of 35 µM. The TGI (SK-MEL-5 melanoma) was 30 µM, the TGI (SK-OV-3 ovarian) was 35.9 µM and the TGI (SN12C renal) was 29.6 µM. The TGI (SNB-19 CNS) was 35.8 µM, the TGI (SNB-75 CNS) was 25.8 µM and the TGI (SR leukemia) was greater than 100 µM. It also gave a TGI (SW-620 colon) greater than 61.4 µM, a TGI (T-47D breast) of 44.6 µM and a TGI (TK-10 renal) of 34.6 µM. It also gave a TGI (U251 CNS) of 28.8 µM, a TGI (UACC-257 melanoma) of 28.5 µM and a TGI (UACC-62 melanoma) of 32.7 µM. It also gave a TGI (UO-31 renal) of 6.6 µM.
